In US11046672B2, “Indolinones compounds and their use in the treatment of fibrotic diseases” (RESPIVERT LIMITED, priority 2015, dated 2021):
Values joined by “and” are separate entries in the source; they are usually repeats but may differ in a detail not shown here. Identical values can stand only once. Like-named read-outs stand apart in the source and are kept apart here.

Assays:
[1] = biological target: T1, PDGFRβ (Homo sapiens (Human), UniProt P09619); assay: PDGF-BB induced phosphorylation of PDGFRβ in fibroblasts (MRC5 cells, HTRF); assay type: cell-based; settings: MRC5 cells; n = 1 unless otherwise indicated; read-out: PDGFBB-induced PDGFRβ phosphorylation in MRC5 cells (IC50)
T1 sequence (P09619 33-1106): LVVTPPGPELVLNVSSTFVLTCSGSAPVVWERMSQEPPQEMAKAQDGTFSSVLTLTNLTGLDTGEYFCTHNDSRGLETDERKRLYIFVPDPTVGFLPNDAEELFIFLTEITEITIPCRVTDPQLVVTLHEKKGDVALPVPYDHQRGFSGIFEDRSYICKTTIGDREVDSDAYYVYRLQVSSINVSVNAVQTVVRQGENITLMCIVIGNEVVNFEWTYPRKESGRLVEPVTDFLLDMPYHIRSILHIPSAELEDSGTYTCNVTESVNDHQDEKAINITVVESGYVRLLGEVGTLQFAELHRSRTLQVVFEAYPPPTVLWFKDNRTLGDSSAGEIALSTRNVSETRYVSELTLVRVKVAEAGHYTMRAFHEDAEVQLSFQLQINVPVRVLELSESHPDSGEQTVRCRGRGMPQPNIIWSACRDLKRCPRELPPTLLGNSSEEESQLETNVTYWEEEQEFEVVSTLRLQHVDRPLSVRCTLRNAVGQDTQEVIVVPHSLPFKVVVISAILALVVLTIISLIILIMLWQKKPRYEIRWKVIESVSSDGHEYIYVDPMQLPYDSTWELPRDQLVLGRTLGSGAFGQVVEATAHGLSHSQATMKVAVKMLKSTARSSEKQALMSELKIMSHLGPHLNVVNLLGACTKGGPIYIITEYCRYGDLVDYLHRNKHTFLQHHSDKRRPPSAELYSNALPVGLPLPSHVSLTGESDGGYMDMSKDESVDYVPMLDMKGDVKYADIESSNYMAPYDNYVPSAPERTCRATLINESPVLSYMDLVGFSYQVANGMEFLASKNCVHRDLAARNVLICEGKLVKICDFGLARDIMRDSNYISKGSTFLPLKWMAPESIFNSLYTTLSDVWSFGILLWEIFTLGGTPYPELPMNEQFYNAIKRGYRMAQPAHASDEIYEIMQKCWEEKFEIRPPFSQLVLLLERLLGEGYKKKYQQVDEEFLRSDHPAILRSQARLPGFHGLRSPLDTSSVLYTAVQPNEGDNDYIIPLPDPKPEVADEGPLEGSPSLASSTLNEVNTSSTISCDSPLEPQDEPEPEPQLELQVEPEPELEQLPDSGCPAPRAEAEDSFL

[2] = system: MRC5 cells; assay: Cell viability assay in MRC5 cells (MTT)
[3] = Pharmacokinetic measurements in rats (intravenous and intra-tracheal dosing); assay type: in vivo; settings: rat
[4] = Pharmacokinetic measurements in mice (intravenous and intra-nasal dosing); assay type: in vivo; settings: mouse; for concentration at 0.1 h / concentration at 1.5 h / concentration at 24 h: lung, read-out: lung concentration (nM) at time (h)
[5] = PAMPA permeability assay; assay type: in vitro ADME; settings: for recovery at 5 hr, 10 μM: pH 7, PAMPA; for Papp at 5 h, 10 μM: pH 7, pH 7, 10 μM
[6] = biological target: T1, PDGFRβ; settings: read-out: Ki PDGFRβ; mean, n = 2 unless otherwise indicated
[7] = PAMPA, donor and acceptor compartments

CCN(OCCN1CCNCC1)C(=O)c1ccc(N/C(=C2\C(=O)Nc3cc(C(=O)OC)c(C)cc32)c2ccccc2)cc1 [Example 68]
IC50 [1]: 16.5 nM

COC(=O)c1ccc2c(c1)NC(=O)/C2=C(\Nc1ccc(N(C)C(=O)CN2CCN(C)CC2)cc1)c1ccccc1 [Nintedanib, reference compound]
Cell viability at 100 nM (%) [2]: 104.6% | Cell viability at 300 nM (%) [2]: 105.6% | Cell viability at 1000 nM (%) [2]: 92.7% | i.t. BAV (%) ([3]; i.t. dosing (i.t. dose 0.1-0.5 per compound)): 43% | BAL % administered dose at time (h) ([3]; i.t. dosing, 0.1 h): 2% | BAL % administered dose at time (h) ([3]; i.t. dosing, 1.5 h): 1% | BAL % administered dose at time (h) ([3]; i.t. dosing, 24 h): 0.1% | BAL % administered dose at time (h) ([3]; i.v. dosing, 0.1 h): 0.06% | BAL % administered dose at time (h) ([3]; i.v. dosing, 1.5 h): 0.03% | BAL % administered dose at time (h) ([3]; i.v. dosing, 24 h): BQL | concentration at 0.1 h ([4]; male, C57BL/6J, iv, i.v. dosing, 0.1 h, mean): 2380 nM | concentration at 1.5 h ([4]; male, C57BL/6J, iv, i.v. dosing, 1.5 h, mean): 1340 nM | concentration at 24 h ([4]; male, C57BL/6J, iv, i.v. dosing, mean): 10 nM | concentration at 0.1 h ([4]; male, C57BL/6J, other: intra-nasal, i.n. dosing, 0.1 h, mean): 2760 nM | concentration at 1.5 h ([4]; male, C57BL/6J, other: intra-nasal, i.n. dosing, 1.5 h, mean): 804 nM | concentration at 24 h ([4]; male, C57BL/6J, other: intra-nasal, i.n. dosing, mean): 15 nM | clearance ([4]; male, C57BL/6J, whole blood, iv): 81 mL/min/kg | MRT ([4]; male, C57BL/6J, whole blood, iv, i.v. dosing, mean): 2 h | Vd ([4]; male, C57BL/6J, whole blood, iv, i.v. dosing, mean, read-out: Vss): 10 L/kg | half-life ([4]; male, C57BL/6J, whole blood, iv, i.v. dosing, mean, read-out: t½ (converted)): 2 h | BAL % administered dose at time (h) ([4]; i.n. dosing, 0.1 h): 0.5% | BAL % administered dose at time (h) ([4]; i.n. dosing, 1.5 h): 0.1% | BAL % administered dose at time (h) ([4]; i.v. dosing, 0.1 h): 0.3% | BAL % administered dose at time (h) ([4]; i.v. dosing, 1.5 h): 0.03%

COC(=O)c1cc2c(cc1C)/C(=C(/Nc1ccc(C(=O)NOCCCN3CCC(OC)CC3)cc1)c1ccccc1)C(=O)N2 [Example 55]
Cell viability at 100 nM (%) [2]: 106.7% | Cell viability at 300 nM (%) [2]: 111.1% | Cell viability at 1000 nM (%) [2]: 92.3% | recovery at 5 hr, 10 μM [5, 7]: 59.1% | Papp at 5 h, 10 μM ([5]; PAMPA, 5 hr): 0.154 ×10⁻⁶ cm/s

CNC(=O)CN1CCN(CCON(C)C(=O)c2ccc(N/C(=C3\C(=O)Nc4cc(C(=O)OC)ccc43)c3ccccc3)cc2)CC1 [Example 71]
IC50 [1]: 23.2 nM

COC(=O)c1cc2c(cc1C)/C(=C(/Nc1ccc(C(=O)N(C)OCCN3CCN[C@H](C)C3)cc1)c1ccccc1)C(=O)N2 [Example 65]
Cell viability at 100 nM (%) [2]: 118.6% | Cell viability at 300 nM (%) [2]: 110.3% | Cell viability at 1000 nM (%) [2]: 70.5%

COC(=O)c1ccc2c(c1)NC(=O)/C2=C(\Nc1ccc(C(=O)N(CCN(C)C)OC)cc1)c1ccccc1 [Example 23]
Cell viability at 100 nM (%) [2]: 93.1% | Cell viability at 300 nM (%) [2]: 85.9% | Cell viability at 1000 nM (%) [2]: 67.9% | recovery at 5 hr, 10 μM [5, 7]: 51.8% | Papp at 5 h, 10 μM ([5]; PAMPA, 5 hr): 20 ×10⁻⁶ cm/s | Ki [6]: 12.2 nM

COC(=O)c1cc2c(cc1C)/C(=C(/Nc1ccc(C(=O)NOCCN3CCNC(=O)C3)cc1)c1ccccc1)C(=O)N2 [Example 70]
Cell viability at 100 nM (%) [2]: 91.7% | Cell viability at 300 nM (%) [2]: 99.7% | Cell viability at 1000 nM (%) [2]: 94.0% | IC50 [1]: 9.98 nM

COC(=O)c1ccc2c(c1)NC(=O)/C2=C(\Nc1ccc(C(=O)NOCCN(C)C)c(F)c1)c1ccccc1 [Example 20]
Cell viability at 100 nM (%) [2]: 75.5% | Cell viability at 300 nM (%) [2]: 81.7% | Cell viability at 1000 nM (%) [2]: 90.7% | % Recovery [5, 7]: 91.7% and 66.5% | Papp at 5 h, 10 μM ([5]; PAMPA, 5 hr): 0.0305 ×10⁻⁶ cm/s | Mean Papp ([5]; pH 7, 10 μM, 5 hr): 0.0296 10^−6 cm s^−1 | Ki [6]: 11.1 nM

COC(=O)c1ccc2c(c1)NC(=O)/C2=C(\Nc1ccc(S(=O)(=O)N(C)OC)cc1)c1ccccc1 [Example 11]
Cell viability at 100 nM (%) [2]: 104.8% | Cell viability at 300 nM (%) [2]: 91.5 (n = 2) % | Cell viability at 1000 nM (%) [2]: 94.8 (n = 2) % | IC50 [1]: 15.3 nM

CNC(=O)CN1CCN(CCONC(=O)c2ccc(N/C(=C3\C(=O)Nc4cc(C(=O)OC)ccc43)c3ccccc3)cc2)CC1 [Example 72]
IC50 [1]: 36.7 nM

COC(=O)c1ccc2c(c1)NC(=O)/C2=C(\Nc1ccc(C(=O)N(C)OCCN2CCN(C)CC2)cc1)c1ccccc1 [Example 14]
Cell viability at 100 nM (%) [2]: 110.8% | Cell viability at 300 nM (%) [2]: 96.9% | Cell viability at 1000 nM (%) [2]: 87.5% | recovery at 5 hr, 10 μM [5, 7]: 57.2% | Papp at 5 h, 10 μM ([5]; PAMPA, 5 hr): 0.434 ×10⁻⁶ cm/s | Ki [6]: 11.1 nM

COC(=O)c1cc2c(cc1C)/C(=C(/Nc1ccc(S(=O)(=O)NOCCN(C)C)cc1)c1ccccc1)C(=O)N2 [Example 48]
Cell viability at 100 nM (%) [2]: 132.6% | Cell viability at 300 nM (%) [2]: 121% | Cell viability at 1000 nM (%) [2]: 103.5% | recovery at 5 hr, 10 μM [5, 7]: 67.4% | Papp at 5 h, 10 μM ([5]; PAMPA, 5 hr): 0.22 ×10⁻⁶ cm/s

COC(=O)c1cc2c(cc1C)/C(=C(/Nc1ccc(C(=O)N(OCCN3CCNCC3)C(C)C)cc1)c1ccccc1)C(=O)N2 [Example 69]
Cell viability at 100 nM (%) [2]: 92.5% | Cell viability at 300 nM (%) [2]: 93.1% | Cell viability at 1000 nM (%) [2]: 74.0% | IC50 [1]: 14.3 nM

COC(=O)c1ccc2c(c1)NC(=O)/C2=C(\Nc1ccc(C(=O)N2CCN(C)CCO2)cc1)c1ccccc1 [Example 24]
Cell viability at 100 nM (%) [2]: 85.4% | Cell viability at 300 nM (%) [2]: 104.7% | Cell viability at 1000 nM (%) [2]: 103.1% | recovery at 5 hr, 10 μM [5, 7]: 71.8% | Papp at 5 h, 10 μM ([5]; PAMPA, 5 hr): 44.8 ×10⁻⁶ cm/s | Ki [6]: 15.5 nM

COC(=O)c1cc2c(cc1C)/C(=C(/Nc1ccc(C(=O)NOCCN3CCN(C)CC3)c(C)c1)c1ccccc1)C(=O)N2 [Example 28]
Cell viability at 100 nM (%) [2]: 110.2% | Cell viability at 300 nM (%) [2]: 117% | Cell viability at 1000 nM (%) [2]: 104.8% | recovery at 5 hr, 10 μM [5, 7]: 69% | Papp at 5 h, 10 μM ([5]; PAMPA, 5 hr): 0.00407 ×10⁻⁶ cm/s

CNC(=O)CN1CCN(CCONC(=O)c2ccc(N/C(=C3\C(=O)Nc4cc(C(=O)OC)c(C)cc43)c3ccccc3)cc2)CC1 [Example 73]
Cell viability at 100 nM (%) [2]: 82.9% | Cell viability at 300 nM (%) [2]: 104% | Cell viability at 1000 nM (%) [2]: 96.8%

COC(=O)c1cc2c(cc1C)/C(=C(/Nc1ccc(C(=O)NOCCN(C)C)cc1)c1ccccc1)C(=O)N2 [Example 26]
Cell viability at 100 nM (%) [2]: 111.8% | Cell viability at 300 nM (%) [2]: 111.4% | Cell viability at 1000 nM (%) [2]: 88% | recovery at 5 hr, 10 μM [5, 7]: 40.2% | Papp at 5 h, 10 μM ([5]; PAMPA, 5 hr): 0.0156 ×10⁻⁶ cm/s

COC(=O)c1ccc2c(c1)NC(=O)/C2=C(\Nc1ccc(C(=O)NOCCN2CCOCC2)c(C)c1)c1ccccc1 [Example 16]
Cell viability at 100 nM (%) [2]: 79% | Cell viability at 300 nM (%) [2]: 59.9% | Cell viability at 1000 nM (%) [2]: 51.9% | Ki [6]: 14.1 nM

COC(=O)c1ccc2c(c1)NC(=O)/C2=C(\Nc1ccc(C(=O)NOCCN2CCOCC2)cc1)c1ccccc1 [Example 12]
Cell viability at 100 nM (%) [2]: 104.8% | Cell viability at 300 nM (%) [2]: 101.7% | Cell viability at 1000 nM (%) [2]: 79.4% | recovery at 5 hr, 10 μM [5, 7]: 41% | Papp at 5 h, 10 μM ([5]; PAMPA, 5 hr): 0.564 ×10⁻⁶ cm/s | Ki [6]: 11.6 nM

COC(=O)c1cc2c(cc1C)/C(=C(/Nc1ccc(C(=O)N(C)OCCN3CCN[C@@H](C)C3)cc1)c1ccccc1)C(=O)N2 [Example 62]
Cell viability at 100 nM (%) [2]: 80.7% | Cell viability at 300 nM (%) [2]: 73.8% | Cell viability at 1000 nM (%) [2]: −0.2% | recovery at 5 hr, 10 μM [5, 7]: 72.8% | Papp at 5 h, 10 μM ([5]; PAMPA, 5 hr): 0.00628 ×10⁻⁶ cm/s

COC(=O)c1ccc2c(c1)NC(=O)/C2=C(\Nc1ccc(C(=O)NOCCN2CCN(C)CC2)c(C)c1)c1ccccc1 [Example 17]
Cell viability at 100 nM (%) [2]: 83% | Cell viability at 300 nM (%) [2]: 90.5% | Cell viability at 1000 nM (%) [2]: 92.5% | recovery at 5 hr, 10 μM [5, 7]: 91.9% | Papp at 5 h, 10 μM ([5]; PAMPA, 5 hr): 0.0142 ×10⁻⁶ cm/s | Ki [6]: 11.7 nM
